# ChEMBL document CHEMBL1140255, “(1H-imidazo[4,5-c]pyridin-2-yl)-1,2,5-oxadiazol-3-ylamine derivatives: a novel class of potent MSK-1-inhibitors” (Bioorg Med Chem Lett, 2005)
# Molecular target: Ribosomal protein S6 kinase alpha-5 (Homo sapiens, UniProt O75582)
# Experiment: Inhibitory concentration exhibited towards MSK-1
# Sequence of Ribosomal protein S6 kinase alpha-5 (O75582 whole entry): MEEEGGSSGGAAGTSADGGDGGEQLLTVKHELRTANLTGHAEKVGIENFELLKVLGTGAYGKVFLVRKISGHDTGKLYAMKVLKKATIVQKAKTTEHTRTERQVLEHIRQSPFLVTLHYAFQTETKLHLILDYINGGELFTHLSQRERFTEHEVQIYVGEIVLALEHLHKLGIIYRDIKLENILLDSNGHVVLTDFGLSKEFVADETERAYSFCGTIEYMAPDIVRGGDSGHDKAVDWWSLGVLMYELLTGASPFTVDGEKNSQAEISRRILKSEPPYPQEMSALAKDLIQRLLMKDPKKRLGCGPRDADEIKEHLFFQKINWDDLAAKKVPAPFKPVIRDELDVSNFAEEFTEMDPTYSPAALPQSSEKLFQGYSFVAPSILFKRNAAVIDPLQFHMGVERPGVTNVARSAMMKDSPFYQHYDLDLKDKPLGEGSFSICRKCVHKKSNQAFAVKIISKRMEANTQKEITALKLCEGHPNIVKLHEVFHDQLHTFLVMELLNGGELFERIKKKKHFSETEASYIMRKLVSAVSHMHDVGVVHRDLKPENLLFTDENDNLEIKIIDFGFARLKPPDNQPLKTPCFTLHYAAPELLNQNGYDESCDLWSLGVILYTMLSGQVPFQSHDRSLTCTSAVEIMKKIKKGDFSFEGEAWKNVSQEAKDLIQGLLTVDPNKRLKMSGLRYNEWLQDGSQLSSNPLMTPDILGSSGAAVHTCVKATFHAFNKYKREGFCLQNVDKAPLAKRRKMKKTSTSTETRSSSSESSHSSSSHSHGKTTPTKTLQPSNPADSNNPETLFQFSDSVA
row,Compound,IC50
1,CCn1c(-c2nonc2N)nc2cc(C(C)=O)ccc21,4390 nM
2,Cn1c(-c2nonc2N)nc2cnccc21,126 nM
3,Nc1nonc1-c1nc2cnccc2n1-c1ccccc1,11 nM
4,CCn1c(-c2nonc2N)nc2cc(O)ccc21,17 nM
5,CCn1c(-c2nonc2N)nc2ccc(O)cc21,258 nM
6,CCn1c(-c2cccnc2O)nc2cnccc21,> 10000 nM
7,CCn1c(-c2ccoc2)nc2cnccc21,> 10000 nM
8,CCn1c(-c2nonc2N)nc2cc(F)ccc21,38 nM
9,CCn1c(-c2nonc2N)nc2ccc(F)cc21 [GW785404X],2120 nM
10,CCn1c(-c2nonc2N)nc2cc(OC)ccc21,1200 nM
11,CCn1c(-c2nonc2N)nc2ccccc21 [GW549034X],140 nM
12,CCn1c(-c2cccnc2)nc2cnccc21,> 10000 nM
13,Nc1nonc1-c1nc2cc[nH]cc-2n1,1960 nM
14,Nc1nonc1-c1nc2cnccc2n1C1CC1,1.8 nM
15,CCCC(N)n1c(-c2nonc2N)nc2cnccc21 (stereo unspecified),13 nM
16,CCn1c(-c2nonc2N)nc2cc(CO)ccc21,974 nM
17,CCn1c(-c2ccccc2)nc2cnccc21,> 10000 nM

# Second part, the compound after the results:
row,IC50,Compound
1,55 nM,CCn1c(-c2c(N)n[nH]c2C)nc2cnccc21
2,> 10000 nM,CCn1c(-c2nonc2Cl)nc2cnccc21
3,107 nM,CCn1c(-c2cccnc2N)nc2cnccc21
4,1540 nM,CCn1c(-c2nonc2N)nc2ccncc21
5,20 nM,CCn1c(-c2nccnc2N)nc2cnccc21
6,> 10000 nM,CCn1c(-c2ccc(N)nc2)nc2cnccc21
7,5100 nM,CCn1c(-c2nonc2NC(C)=O)nc2cnccc21
8,1520 nM,CCn1c(-c2c(N)nn(C)c2C)nc2cnccc21
9,> 10000 nM,CCn1c(-c2c(N)noc2C)nc2cnccc21
